# Reference: patent US11339193B2, “CDP protein secretion inhibitors” (KEZAR LIFE SCIENCES, priority 2018, dated 2022)
# pEC50, pIC50: −log10 of the molar value. Square brackets hold non-standard residues; d marks the D form. Peptide text beside a SMILES is read from it. NMeTrp(1-(4-Br-benzyl)) = CN[C@@H](Cc1cn(Cc2ccc(Br)cc2)c2ccccc12)C(=O)O; Butanoyl(2R-oxy,4-CN) = N#CCC[C@@H](O)C(=O)O; tBuAla = CC(C)(C)C[C@H](N)C(=O)O; NMeL = CN[C@@H](CC(C)C)C(=O)O; NMeA = CN[C@@H](C)C(=O)O
# Assays:
# Type in all cases: cell-based
# [1] = tested on: BT474 breast tumor cell line; experiment: BT474 assay (Alamar blue); conditions: Homo sapiens, BT-474, 72 h
# Description: BT474 is a human breast tumor cell line. JJN3 is a human plasma cell leukemia cell line. […] Cells were seeded at 100 000 cells/mL. Aliquots of 5000 cells (50 μL) were added to each well in black, clear bottom 96-well plates. Compounds or control (50 uL of 1% DMSO in cell culture medium) were added to the cells to the indicated final concentrations and cells were incubated for 72 h (unless otherwise specified). After incubation was complete, Alamar blue (10 uL of a 1 mg/mL solution) was added to each well and plates were incubated for 5 h. Fluorescence was then measured (excitation 545 nm, emission 590 nm) and is reported as […] normalized to DMSO control.
# [2] = tested on: PD1-ss+10aa/Gaussia Luciferase; experiment: Dox induced PD1-ss-Gluc assay; conditions: Flp-In 293 T-REx cells, doxycycline, 24 hours; read-out: PD1ss Gluc IC50
# How it was run: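 Stable Flp-In 293 T-REx line expressing doxycycline-inducible Gaussia luciferase fused to the PD1 signal sequence plus 10 amino acids. Cells plated the day before, then exposed to compound dilutions in DMSO/media containing doxycycline at 37 °C, 5% CO2.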
# [3] = tested on: VCAMss+10aa/Gaussia Luciferase; experiment: VCAM-ss-Gluc assay (constitutively active or Dox induced); conditions: Flp-In 293 T-REx cells, 24 hours
# How it was run: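 Stable cell lines secreting a VCAM signal sequence+10aa/Gaussia luciferase fusion, expressed either constitutively or under T-REx doxycycline control. Cells plated the day before; compound dilutions in DMSO/media (with doxycycline for the induced line) added and incubated at 37° C, 5% CO2.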
# [4] = tested on: JJN3 plasma cell leukemia cell line; experiment: JJN-3 assay (Alamar blue); conditions: Homo sapiens, 72 h
# How it was run: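 For both lines, 5000 cells/well were exposed to compound or a 1% DMSO-medium control for 72 h unless otherwise specified. Signal was normalized to the DMSO control.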
# [5] = tested on: HER3ss-Gluc; experiment: HER3ss assay; conditions: HEK-293T T-rex cells, transient transfection, doxycycline, 24 h; read-out: HER3 ss IC50
# How it was run: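 HEK-293T T-REx cells were transiently transfected with HER3 signal sequence (plus four mature-domain residues) fused upstream of mature Gaussia luciferase. Cells were induced with doxycycline (1 μg/ml) and exposed to increasing compound concentrations for 24 h, then secreted luciferase in the conditioned medium was read by luminescence.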
# [6] = tested on: U266B1 multiple myeloma cell line; experiment: U266 assay (cell viability, Celltiter-Glo); conditions: Homo sapiens, U-266; 48 hours, cell viability
# Description: Cells were plated in 384-well tissue culture plates and treated with compound dilutions in DMSO/media. Plates were incubated at 37° C., 5% CO2 for 48 hours. After 48 hours, Celltiter-Glo@ (Promega) was added to each well and luciferase signal was quantified using Tecan Infinite M1000 Pro for cell viability determination.
# [7] = tested on: TNFα-FL/Gaussia Luciferase; experiment: Dox induced TNFα-FL-Gluc assay; conditions: Flp-In 293 T-REx cells, doxycycline, 24 hours; read-out: TNFa FL Gluc IC50
# How it was run: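 Stable Flp-In 293 T-REx line expressing full-length TNFα (aa 1-233) fused at its C-terminus to Gaussia luciferase under doxycycline-inducible control. Cells plated the day before, then given compound dilutions in DMSO/media containing doxycycline and incubated at 37 °C, 5% CO2.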
# [8] = tested on: Prl-ss+10aa/Gaussia Luciferase; experiment: Prl-ss-Gluc assay (constitutively active or 24 hr Dox inducible); conditions: Flp-In 293 T-REx cells, 24 hours; read-out: Prl IC50
# How it was run: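 Stable Flp-In 293 T-REx lines express Prl signal sequence+10aa fused to Gaussia luciferase, either constitutively (pcDNA5/FRT) or under the T-REx promoter (pcDNA5/FRT/TO). Cells plated the day before; compounds in DMSO/media (with doxycycline for the inducible line, 24 h) incubated at 37 °C, 5% CO2.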
# [9] = tested on: NCI-H929 multiple myeloma cell line; experiment: H929 assay (cell viability, Celltiter-Glo); conditions: Homo sapiens, NCI-H929; 48 hours, cell viability; read-out: H929 EC50
# How it was run: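 Cells plated in RPMI 1640 with 10% FBS and 2 mM glutamine, treated with compound dilutions in DMSO/media. Incubation 48 h at 37° C, 5% CO2. Viability from luciferase luminescence signal.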
pEC50 [1],pIC50 [2],pIC50 [3],pEC50 [4],pIC50 [5],pEC50 [6],pIC50 [7],pIC50 [8],pEC50 [9],SMILES
5.58,6.32,5.40,5.31,6.55,4.69,5.33,5.19,5.23,"Cc1cc(Cn2cc(C[C@H]3C(=O)N[C@@H](CC(C)C)C(=O)N(C)[C@@H](C)C(=O)O[C@H](CCC#N)C(=O)N[C@@H](CC(C)C)C(=O)N(C)[C@@H](CC(C)C)C(=O)N[C@@H](CC(C)C)C(=O)N3C)c3ccccc32)no1 [C-15] (HELM PEPTIDE1{L.[meA].[N#CCC[C@@H](O[*:1])C(=O)[*:2]].L.[meL].L.[Cc1cc(Cn2cc(C[C@@H](C(=O)[*:2])N(C)[*:1])c3ccccc32)no1]}$PEPTIDE1,PEPTIDE1,1:R1-7:R2$$$V2.0)"
5.67,7.24,6.85,6.50,7.00,4.76,6.63,6.07,5.77,"COc1cc(Cn2cc(C[C@H]3C(=O)N[C@@H](CC(C)C)C(=O)N(C)[C@@H](C)C(=O)O[C@H](CCC#N)C(=O)N[C@@H](CC(C)C)C(=O)N(C)[C@@H](CC(C)C)C(=O)N[C@@H](CC(C)C)C(=O)N3C)c3ccccc32)ccc1F [C-27] (HELM PEPTIDE1{L.[meA].[N#CCC[C@@H](O[*:1])C(=O)[*:2]].L.[meL].L.[COc1cc(Cn2cc(C[C@@H](C(=O)[*:2])N(C)[*:1])c3ccccc32)ccc1F]}$PEPTIDE1,PEPTIDE1,1:R1-7:R2$$$V2.0)"
5.90,6.97,6.68,6.62,6.90,,6.43,5.90,5.55,"CC(C)C[C@@H]1NC(=O)[C@H](Cc2cn(Cc3cncc(F)c3)c3ccccc23)N(C)C(=O)[C@H](CC(C)C)NC(=O)[C@H](CC(C)C)N(C)C(=O)[C@H](CC(C)C)NC(=O)[C@@H](CCC#N)OC(=O)[C@H](C)N(C)C1=O [C-35] (HELM PEPTIDE1{L.[meA].[N#CCC[C@@H](O[*:1])C(=O)[*:2]].L.[meL].L.[CN([C@@H](Cc1cn(Cc2cncc(F)c2)c2ccccc12)C(=O)[*:2])[*:1]]}$PEPTIDE1,PEPTIDE1,1:R1-7:R2$$$V2.0)"
5.45,7.17,6.52,6.21,6.48,,6.58,5.48,5.51,"CC(C)C[C@@H]1NC(=O)[C@H](Cc2cn(Cc3ccc(Br)cc3)c3ccccc23)N(C)C(=O)[C@H](CC(C)C)NC(=O)[C@H](CC(C)C)N(C)C(=O)[C@H](CC(C)(C)C)NC(=O)[C@@H](CCC#N)OC(=O)[C@H](C)N(C)C1=O [C-39] (cyclo(L[NMeA][Butanoyl(2R-oxy,4-CN)][tBuAla][NMeL]L[NMeTrp(1-(4-Br-benzyl))]))"

SMILES,pEC50 [1],pIC50 [2],pIC50 [3],pEC50 [4],pIC50 [5],pEC50 [6],pIC50 [7],pIC50 [8],pEC50 [9]
"COc1cccc(Cn2cc(C[C@H]3C(=O)N[C@@H](CC(C)C)C(=O)N(C)[C@@H](C)C(=O)O[C@H](CCC#N)C(=O)N[C@@H](CC(C)C)C(=O)N(C)[C@@H](CC(C)C)C(=O)N[C@@H](CC(C)C)C(=O)N3C)c3ccccc32)c1 [C-13] (HELM PEPTIDE1{L.[meA].[N#CCC[C@@H](O[*:1])C(=O)[*:2]].L.[meL].L.[COc1cccc(Cn2cc(C[C@@H](C(=O)[*:2])N(C)[*:1])c3ccccc32)c1]}$PEPTIDE1,PEPTIDE1,1:R1-7:R2$$$V2.0)",5.87,7.52,5.99,6.72,7.16,4.77,6.93,5.72,6.08
